In paper PMC9519446, “Discovery of an Orally Active Benzoxaborole Prodrug Effective in the Treatment of Chagas Disease in Non-human Primates” (Nature microbiology, 2022):
Like-named read-outs stand apart in the source and are kept apart here.

What was measured:
[1] = tested on: T. cruzi extracellular amastigotes; assay: Extracellular amastigote assay (ATPlite luminescence, 48 hours); type: cell-based; settings: Trypanosoma cruzi
Procedure: The in vitro anti-T. cruzi amastiogote activity assay was performed and optimized based on the protocol described previously. The change in tdTomato fluorescence intensity was determined as a measurement of growth over 72 hours of culture. For assaying drug effects on extracellular amastigotes, trypomastigotes were collected from infected Vero cell cultures and converted in acidic media as previously described. Amastigotes (50,000/well) were incubated with 2-fold serial dilutions of compounds for 48 hours. The ATP production was used as an indication of growth in this case, and was measured by ATPlite Luminescence ATP Detection Assay System (PerkinElmer). Both fluorescence and luminescence were read using a BioTek Synergy Hybrid Multi-Mode reader equipped with the software Gene5 v 2.0 (BioTek). The dose-response curve was generated by […] analysis with GraphPad Prism v9.4.0 (GraphPad Software).

[2] = tested on: wild-type and peptidase knockout T. cruzi epimastigotes and amastigotes; assay: LC-MS/MS analysis of intracellular AN15368 and AN14667 (uptake and conversion); type: cell-based, Trypanosoma cruzi; settings: epimastigotes 10 uM, amastigotes 50 nM; WT vs CBP KO
Procedure: The cells were then pelleted and resuspended in 100 μL of PBS. The cell suspension was mixed with 200 μl of acetonitrile and centrifuged at 735 gfor 10 minutes at room temperature. After extraction, the supernatant was further diluted with methanol:water 30:70 (v/v) containing 0.4 nM internal standard (IS) AN14817 to a concentration within the calibration range. Each sample was diluted in triplicate to provide technical replicates and the diluted sample (10 μL) was injected for subsequent LC-MS/MS analysis.
LC-MS/MS analysis was performed on a Waters ACQUITY I-Class UPLC system coupled to a Xevo TQ-S triple quadrupole mass spectrometer. An ACQUITY UPLC BEH C18 column (130 Å, 1.7 μm, 2.1 mm x 50 mm) was used for chromatographic separation, and the column temperature was 40 °C. The mobile phase consisted of water (A) and methanol (B), both containing 0.1% (v/v) formic acid. The following gradient elution was performed at a flow rate of 0.4 mL/min: 0 – 0.5 min, 30% B; 0.5 – 3 min, 30 – 95% B; 3 – 4 min, 95% B; 4 – 4.1 min, 95 – 30% B; and 4.1 – 5 min, 30% B. The MS ionization was carried out in the positive electrospray ionization (ESI) mode with following conditions: capillary voltage = 1.50 kV; desolvation temperature = 500 °C; desolvation gas flow = 1000 L/h; and nebulizer gas pressure = 7.0 bar. […] Data were processed using TargetLynx v4.1 software (Waters).

[3] = Plasma protein binding (rat); type: in vitro ADME

| SMILES | IC50 ([1]; WT extracellular amastigotes, Fig. 2c, read-out: WT IC50) | IC50 ([1]; extracellular amastigotes, Fig. 2a, read-out: Extracellular IC50) | accumulation and conversion to cleaved product AN14667 [2] | Funbound (rat) [3] |
| --- | --- | --- | --- | --- |
| Cc1c(C(=O)NC(C(=O)OCc2ccc(F)c(F)c2)C(C)C)ccc2c1B(O)OC2 (stereo not shown) [AN14353] | 0.5 nM | 0.1 nM | – | – |
| Cc1c(C(=O)N[C@H](C(=O)OCC2CCOCC2)C(C)C)ccc2c1B(O)OC2 [AN15368] | – | – | conversion to the cleaved product in wild-type T. cruzi epimastigotes and amastigotes but not in the KO line | 10% |
